Laboratory results from patent US9227971B2, “Pyrazolo[1,5-a]pyrimidine compounds as mTOR inhibitors” (Merck Sharp & Dohme Corp., priority 2010, dated 2016).

Experiments:
[1] = tested on: phosphorylated 4E-BP1 Thr37/46 (p4E-BP1 Thr37/46), mTORC1 activity, PC3 cells; test: mTOR target engagement assay, immunofluorescent cell-based, p4E-BP1 Thr37/46 readout (mTORC1 activity); settings: Homo sapiens, PC-3, PC3 cells, compound treatment ninety minutes at 37° C.; read-out: p4E-BP1 Thr37/46 IC50
How it was run: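 PTEN-mutant PC3 prostate cells were treated with serially diluted compound in 5% FBS F12 medium (0.25% DMSO) for ninety minutes at 37° C, glyoxal-fixed, then immunostained overnight at 4° C for p4E-BP1 Thr37/46 with an Alexa Fluor 488 secondary. IC50 came from four-parameter fits of fluorescence, DMSO-only wells defining 100%.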

[2] = tested on: phosphorylated AKT Ser473 (pAKT S473), mTORC2 activity, PC3 cells; test: mTOR target engagement assay, immunofluorescent cell-based, pAKT S473 readout (mTORC2 activity); settings: Homo sapiens, PC-3, PC3 cells, compound treatment ninety minutes at 37° C.
How it was run: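 After blocking, cells were stained overnight at 4 °C with anti-pAKT S473 antibody, then a fluorescent secondary; inhibition was read as reduced fluorescence intensity.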

Structure (SMILES)	IC50 [1]	IC50 [2]
COc1ccc(-c2ccc(-c3cnn4c(N)c(C(C)=O)c([C@H]5C[C@H]6CC[C@@H](C5)N6C(=O)c5nnc[nH]5)nc34)cn2)cc1F [Compound 1.1.54, 1-(5-((1R,3r,5S)-8-(4H-1,2,4-triazole-3-carbonyl)-8-azabicyclo[3.2.1]octan-3-yl)-7-amino-3-(6-(3-fluoro-4-methoxyphenyl)pyridin-3-yl)pyrazolo[1,5-a]pyrimidin-6-yl)ethanone]	0.1 to 1 µM	0.1 to 1 µM
CC(=O)c1c([C@@H]2C[C@H]3CC[C@@H](C2)N3C(=O)c2nnc[nH]2)nc2c(-c3ccc(-c4ccn(C)n4)nc3)cnn2c1N [Compound 1.1.55, 1-(5-((1R,3s,5S)-8-(4H-1,2,4-triazole-3-carbonyl)-8-azabicyclo[3.2.1]octan-3-yl)-7-amino-3-(6-(1-methyl-1H-pyrazol-3-yl)pyridin-3-yl)pyrazolo[1,5-a]pyrimidin-6-yl)ethanone]	0.001 to 0.1 µM	0.001 to 0.1 µM
CC(=O)c1c([C@@H]2C[C@H]3CC[C@@H](C2)N3C(=O)C(C)(CO)CO)nc2c(-c3ccc(-c4ccn(C)n4)nc3)cnn2c1N [Compound 1.1.56, 1-((1R,3s,5S)-3-(6-acetyl-7-amino-3-(6-(1-methyl-1H-pyrazol-3-yl)pyridin-3-yl)pyrazolo[1,5-a]pyrimidin-5-yl)-8-azabicyclo[3.2.1]octan-8-yl)-3-hydroxy-2-(hydroxymethyl)-2-methylpropan-1-one]	0.1 to 1 µM	0.1 to 1 µM
COc1ccc(-c2ccc(-c3cnn4c(N)c(C(C)=O)c([C@@H]5C[C@H]6CC[C@@H](C5)N6C(=O)c5nnc[nH]5)nc34)cn2)cc1F [Compound 1.1.57, 1-(5-((1R,3s,5S)-8-(4H-1,2,4-triazole-3-carbonyl)-8-azabicyclo[3.2.1]octan-3-yl)-7-amino-3-(6-(3-fluoro-4-methoxyphenyl)pyridin-3-yl)pyrazolo[1,5-a]pyrimidin-6-yl)ethanone]	0.001 to 0.1 µM	0.001 to 0.1 µM
COc1ccc(-c2ccc(-c3cnn4c(N)c(C(C)=O)c([C@@H]5C[C@H]6CC[C@@H](C5)N6C(=O)CO)nc34)cn2)cc1F [Compound 1.1.58, 1-((1R,3s,5S)-3-(6-acetyl-7-amino-3-(6-(3-fluoro-4-methoxyphenyl)pyridin-3-yl)pyrazolo[1,5-a]pyrimidin-5-yl)-8-azabicyclo[3.2.1]octan-8-yl)-2-hydroxyethanone]	0.1 to 1 µM	0.1 to 1 µM
COc1ccc(-c2ccc(-c3cnn4c(N)c(C(C)=O)c([C@@H]5C[C@H]6CC[C@@H](C5)N6C(=O)C(C)(CO)CO)nc34)cn2)cc1F [Compound 1.1.59, 1-((1R,3s,5S)-3-(6-acetyl-7-amino-3-(6-(3-fluoro-4-methoxyphenyl)pyridin-3-yl)pyrazolo[1,5-a]pyrimidin-5-yl)-8-azabicyclo[3.2.1]octan-8-yl)-3-hydroxy-2-(hydroxymethyl)-2-methylpropan-1-one]	0.001 to 0.1 µM	0.001 to 0.1 µM
CC(=O)c1c([C@@H]2C[C@H]3CC[C@@H](C2)N3C(=O)CO)nc2c(-c3ccc(-c4ccn(C)n4)nc3)cnn2c1N [Compound 1.1.60, 1-((1R,3s,5S)-3-(6-acetyl-7-amino-3-(6-(1-methyl-1H-pyrazol-3-yl)pyridin-3-yl)pyrazolo[1,5-a]pyrimidin-5-yl)-8-azabicyclo[3.2.1]octan-8-yl)-2-hydroxyethanone]	0.1 to 1 µM	0.1 to 1 µM
CC(=O)c1c([C@@H]2C[C@H]3CC[C@@H](C2)N3C(=O)c2nnc[nH]2)nc2c(-c3ccc(-c4cccc(F)c4F)nc3)cnn2c1N [Compound 1.1.61, 1-(5-((1R,3s,5S)-8-(4H-1,2,4-triazole-3-carbonyl)-8-azabicyclo[3.2.l]octan-3-yl)-7-amino-3-(6-(2,3-difluorophenyl)pyridin-3-yl)pyrazolo[1,5-a]pyrimidin-6-yl)ethanone]	0.001 to 0.1 µM	0.001 to 0.1 µM
CC(=O)c1c([C@@H]2C[C@H]3CC[C@@H](C2)N3C(=O)c2nnc[nH]2)nc2c(-c3ccc(-c4cccnc4F)nc3)cnn2c1N [Compound 1.1.62, 1-(5-((1R,3s,5S)-8-(4H-1,2,4-triazole-3-carbonyl)-8-azabicyclo[3.2.1]octan-3-yl)-7-amino-3-(2′-fluoro-2,3′-bipyridin-5-yl)pyrazolo[1,5-a]pyrimidin-6-yl)ethanone]	0.001 to 0.1 µM	0.001 to 0.1 µM
CC(=O)c1c([C@@H]2C[C@H]3CC[C@@H](C2)N3C(=O)c2nnc[nH]2)nc2c(-c3ccc(-c4nnn(C)n4)nc3)cnn2c1N [Compound 1.1.63, 1-(5-((1R,3s,5S)-8-(4H-1,2,4-triazole-3-carbonyl)-8-azabicyclo[3.2.1]octan-3-yl)-7-amino-3-(6-(2-methyl-2H-tetrazol-5-yl)pyridin-3-yl)pyrazolo[1,5-a]pyrimidin-6-yl)ethanone]	0.001 to 0.1 µM	0.001 to 0.1 µM
COc1c(F)cc(-c2ccc(-c3cnn4c(N)c(C(C)=O)c([C@@H]5C[C@H]6CC[C@@H](C5)N6C(=O)c5nnc[nH]5)nc34)cn2)cc1F [Compound 1.1.64, 1-(5-((1R,3s,5S)-8-(4H-1,2,4-triazole-3-carbonyl)-8-azabicyclo[3.2.1]octan-3-yl)-7-amino-3-(6-(3,5-difluoro-4-methoxyphenyl)pyridin-3-yl)pyrazolo[1,5-a]pyrimidin-6-yl)ethanone]	0.1 to 1 µM	0.1 to 1 µM
COc1ccc(-c2ccc(-c3cnn4c(N)c(C(C)=O)c([C@@H]5C[C@H]6CC[C@@H](C5)N6C(=O)c5nnc[nH]5)nc34)cn2)c(F)c1F [Compound 1.1.65, 1-(5-((1R,3s,5S)-8-(4H-1,2,4-triazole-3-carbonyl)-8-azabicyclo[3.2.1]octan-3-yl)-7-amino-3-(6-(2,3-difluoro-4-methoxyphenyl)pyridin-3-yl)pyrazolo[1,5-a]pyrimidin-6-yl)ethanone]	0.001 to 0.1 µM	0.001 to 0.1 µM
COCCOc1ccc(-c2ccc(-c3cnn4c(N)c(C(C)=O)c([C@@H]5C[C@H]6CC[C@@H](C5)N6C(=O)c5nnc[nH]5)nc34)cn2)cc1 [Compound 1.1.69, 1-(5-((1R,3s,5S)-8-(4H-1,2,4-triazole-3-carbonyl)-8-azabicyclo[3.2.1]octan-3-yl)-7-amino-3-(6-(4-(2-methoxyethoxy)phenyl)pyridin-3-yl)pyrazolo[1,5-a]pyrimidin-6-yl)ethanone]	0.1 to 1 µM	0.1 to 1 µM
CC(=O)c1c([C@@H]2C[C@H]3CC[C@@H](C2)N3C(=O)c2nnc[nH]2)nc2c(-c3ccc(-c4ccc5nn(C)cc5c4)nc3)cnn2c1N [Compound 1.1.70, 1-(5-((1R,3s,5S)-8-(4H-1,2,4-triazole-3-carbonyl)-8-azabicyclo[3.2.1]octan-3-yl)-7-amino-3-(6-(2-methyl-2H-indazol-5-yl)pyridin-3-yl)pyrazolo[1,5-a]pyrimidin-6-yl)ethanone]	0.001 to 0.1 µM	0.001 to 0.1 µM
CC(=O)c1c([C@@H]2C[C@H]3CC[C@@H](C2)N3C(=O)c2nnc[nH]2)nc2c(-c3ccc(-c4ccc5nc[nH]c5c4)nc3)cnn2c1N [Compound 1.1.71, 1-(3-(6-(1H-benzo[d]imidazol-6-yl)pyridin-3-yl)-5-((1R,3s,5S)-8-(4H-1,2,4-triazole-3-carbonyl)-8-azabicyclo[3.2.1]octan-3-yl)-7-aminopyrazolo[1,5-a]pyrimidin-6-yl)ethanone]	0.1 to 1 µM	0.1 to 1 µM
COc1cc(F)c(-c2ccc(-c3cnn4c(N)c(C(C)=O)c([C@@H]5C[C@H]6CC[C@@H](C5)N6C(=O)c5nnc[nH]5)nc34)cn2)cc1F [Compound 1.1.72, 1-(5-((1R,3s,5S)-8-(4H-1,2,4-triazole-3-carbonyl)-8-azabicyclo[3.2.1]octan-3-yl)-7-amino-3-(6-(2,5-difluoro-4-methoxyphenyl)pyridin-3-yl)pyrazolo[1,5-a]pyrimidin-6-yl)ethanone]	0.001 to 0.1 µM	0.001 to 0.1 µM
CCOc1ccc(-c2ccc(-c3cnn4c(N)c(C(C)=O)c([C@@H]5C[C@H]6CC[C@@H](C5)N6C(=O)c5nnc[nH]5)nc34)cn2)cc1 [Compound 1.1.73, 1-(5-((1R,3s,5S)-8-(4H-1,2,4-triazole-3-carbonyl)-8-azabicyclo[3.2.1]octan-3-yl)-7-amino-3-(6-(4-ethoxyphenyl)pyridin-3-yl)pyrazolo[1,5-a]pyrimidin-6-yl)ethanone]	0.001 to 0.1 µM	0.001 to 0.1 µM
CC(=O)c1c([C@@H]2C[C@H]3CC[C@@H](C2)N3C(=O)c2nnc[nH]2)nc2c(-c3ccc(-c4cc[nH]n4)nc3)cnn2c1N [Compound 1.1.74, 1-(3-(6-(1H-pyrazol-3-yl)pyridin-3-yl)-5-((1R,3s,5S)-8-(4H-1,2,4-triazole-3-carbonyl)-8-azabicyclo[3.2.1]octan-3-yl)-7-aminopyrazolo[1,5-a]pyrimidin-6-yl)ethanone]	0.001 to 0.1 µM	0.001 to 0.1 µM
CC(=O)c1c([C@@H]2C[C@H]3CC[C@@H](C2)N3C(=O)CO)nc2c(-c3ccc(-c4cc[nH]n4)nc3)cnn2c1N [Compound 1.1.75, 1-((1R,3s,5S)-3-(3-(6-(1H-pyrazol-3-yl)pyridin-3-yl)-6-acetyl-7-aminopyrazolo[1,5-a]pyrimidin-5-yl)-8-azabicyclo[3.2.1]octan-8-yl)-2-hydroxyethanone]	0.001 to 0.1 µM	0.001 to 0.1 µM
CC(=O)c1c([C@@H]2C[C@H]3CC[C@@H](C2)N3C(=O)c2nnc[nH]2)nc2c(-c3ccc(-c4ccncc4)nc3)cnn2c1N [Compound 1.1.76, 1-(3-(2,4′-bipyridin-5-yl)-5-((1R,3s,5S)-8-(4H-1,2,4-triazole-3-carbonyl)-8-azabicyclo[3.2.1]octan-3-yl)-7-aminopyrazolo[1,5-a]pyrimidin-6-yl)ethanone]	0.1 to 1 µM	0.1 to 1 µM
